Assay results reported in patent publication US12617762B2, “Carboxy derivatives with antiinflamatory properties” (Sitryx Therapeutics Limited, priority 2019, dated 2026).
pEC50, pIC50: −log10 of the molar value. Like-named read-outs stand apart in the source and are kept apart here.

Legend:
Assay type in all cases: cell-based
[1] = test system: IL-1β cytokine output from THP-1s; assay: THP-1 AlphaLISA IL-1β cytokine inhibition assay; conditions: for pIC50: Homo sapiens; for IL-1β lowering, result in words: THP-1 IL-1β assay
Summary of the method: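 IL-1β release by AlphaLISA, expressed as % inhibition against +/− LPS controls on each plate. Differentiation: PMA, 72 h. Sequence: 30 min compound pre-treatment, LPS 24 h, Nigericin 1 h before supernatant harvest, all at 37° C./5% CO2.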

[2] = test system: IL-6 cytokine output from THP-1s; assay: THP-1 AlphaLISA IL-6 cytokine inhibition assay; conditions: Homo sapiens, LPS then nigericin
Procedure: The cytokine inhibition profiles of compounds of formula (I) were determined in a differentiated THP-1 cell assay. All assays were performed in RPMI-1640 growth medium (Gibco), supplemented with 10% fetal bovine serum (FBS; Gibco), 1% penicillin-streptomycin and 1% sodium pyruvate unless specified otherwise. The IL-1β cytokine inhibition assay was run in a background of differentiated THP-1 cells as described below. All reagents described were from Sigma-Aldrich unless specified otherwise. Compounds were prepared as 10 mM DMSO stocks.
THP-1 cells were expanded as a suspension up to 80% confluence in appropriate growth medium. Cells were harvested, suspended, and treated with an appropriate concentration of phorbol 12-myristate 13-acetate (PMA) over a 72 hr period (37° C./5% CO2).
Following 72 hrs of THP-1 cell incubation, cellular medium was removed and replaced with fresh growth media containing 1% of FBS. Working concentrations of compounds were prepared separately in 10% FBS treated growth medium and pre-incubated with the cells for 30 minutes (37° C./5% CO2). Following the 30 minute compound pre-incubation, THP-1s were treated with an appropriate concentration of LPS and the cells were subsequently incubated for a 24 hr period (37° C./5% CO2). An appropriate final concentration of Nigericin was then dispensed into the THP-1 plates and incubated for 1 hour (37° C./5% CO2) before THP-1 supernatants were harvested and collected in separate polypropylene 96-well holding plates.
Reagents from an IL-1β and IL-6 commercial kit (Perkin Elmer) were prepared and run according to the manufacturer's instructions. Subsequently, fluorescence signal detection in a microplate reader was measured (EnVision® Multilabel Reader, Perkin Elmer).
Percentage inhibition was calculated per cytokine by normalising the sample data to the high and low controls used within each plate (+/− LPS respectively).

[3] = test system: NRF2 (nuclear factor erythroid 2-related factor 2); assay: NRF2 +/-GSH activation assay (DiscoverX PathHunter NRF2 translocation kit, U2OS cells)
Summary of the method: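 Activation is expressed as percent of plate DMF (high) versus no-DMF (low) controls, from luminescence after 6 h compound exposure at 37 °C of U2OS PathHunter cells. The +GSH condition used compound pre-incubated 30 min in 6 mM working GSH; −GSH cells received compound directly.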

[4] = THP-1, differentiated THP-1 cells, LPS then nigericin
[5] = +GSH, 30 minute compound-GSH pre-incubation, read-out: NRF2 activation +GSH EC50
[6] = +GSH, normalised to DMF high control
[7] = −GSH, U2OS PathHunter cells, 6 hours compound treatment, read-out: NRF2 activation −GSH EC50
[8] = −GSH, normalised to DMF high control
[9] = THP-1, differentiated THP-1 cells

| SMILES | pIC50 [1, 4] | pIC50 ([2]; differentiated THP-1 cells) | pEC50 [3, 5] | NRF2 activation +GSH Emax [3, 6] [%] | pEC50 [3, 7] | NRF2 activation −GSH Emax [3, 8] [%] | pIC50 [2, 9] | IL-1β lowering, result in words [1] | pIC50 ([1]; THP-1, Table 3, head to head comparison of exo vs endo double bond compounds) | pEC50 ([3]; −GSH, Table 5 exo vs endo comparison, read-out: −GSH EC50) | −GSH Emax ([3]; −GSH, normalised to DMF high control, Table 5 exo vs endo comparison) [%] |
| --- | --- | --- | --- | --- | --- | --- | --- | --- | --- | --- | --- |
| C=C(Cc1ncc(CCCCCCCC)cn1)C(=O)O [Example 106] | 4.17 | 4.41 | 4.61 | 101 | 4.73 | 143 |  |  |  |  |  |
| C=C(Cc1nc(-c2ccc(CCCC)cc2)co1)C(=O)O [Example 101, 2-((4-(4-butylphenyl)oxazol-2-yl)methyl)acrylic acid] | 4.28 |  |  |  |  |  | 5.34 |  |  |  |  |
| C=C(C(=O)O)C(C)(C)c1nc(C2(c3ccc(C(F)(F)F)cc3)CC2)no1 [Example 172] | 5.29 | 4.17 | < 4.00 | 7.6 | < 4.00 | 0 |  |  |  |  |  |
| C=C(Cc1nc(C(C)(C)c2ccc(Cl)cc2)no1)C(=O)O [Example 30, 2-((3-(2-(4-chlorophenyl)propan-2-yl)-1,2,4-oxadiazol-5-yl)methyl)acrylic acid] | 4.27 |  | < 4.00 | 12 | < 4.00 | 36 | < 4.00 | not effective |  |  |  |
| C=C(Cc1nc(CCc2ccc(CC)cc2)no1)C(=O)O [Example 41, 2-((3-(4-ethylphenethyl)-1,2,4-oxadiazol-5-yl)methyl)acrylic acid] | 4.34 |  | 4.40 | 103 | 4.50 | 135 | 4.65 |  |  |  |  |
| C/C(=C\c1nc(C2(c3ccc(SC(F)(F)F)cc3)CC2)no1)C(=O)O [Example 170] | < 4.50 | 4.68 | 4.46 | 96.5 | 4.41 | 177 |  |  | < 4.50 | 4.41 | 177 |
| C=C(Cc1nc(-c2cc(F)c(OCCCC)c(F)c2)no1)C(=O)O [Example 162, 2-((3-(4-butoxy-3,5-difluorophenyl)-1,2,4-oxadiazol-5-yl)methyl)acrylic acid] | < 4.33 | 5.19 | 5.89 | 269 | 5.96 | 232 |  |  |  |  |  |
| C=C(Cc1nc(C2(c3ccc(OCCCC)cc3)CC2)no1)C(=O)O [Example 80, 2-((3-(1-(4-butoxyphenyl)cyclopropyl)-1,2,4-oxadiazol-5-yl)methyl)acrylic acid] | 4.43 |  |  |  |  |  | 5.02 |  |  |  |  |
| C=C(Cc1nc(-c2ccc(CCC(F)(F)F)cc2)no1)C(=O)O [Example 73, 2-((3-(4-(3,3,3-trifluoropropyl)phenyl)-1,2,4-oxadiazol-5-yl)methyl)acrylic acid] | < 4.00 |  |  |  |  |  | 4.98 | not effective |  |  |  |
| C=C(Cc1nc(Cc2ccc(CC(C)(C)C)cc2)no1)C(=O)O [Example 69, 2-((3-(4-neopentylbenzyl)-1,2,4-oxadiazol-5-yl)methyl)acrylic acid] | 4.31 |  |  |  |  |  | 5.00 |  |  |  |  |
| C=C(Cc1nc(C2(c3ccc(OC)c(Cl)c3)CC2)no1)C(=O)O [Example 140, 2-((3-(1-(3-chloro-4-methoxyphenyl)cyclopropyl)-1,2,4-oxadiazol-5-yl)methyl)acrylic acid] | 4.53 | < 4.00 |  |  |  |  |  |  |  |  |  |
| C=C(Cc1nc(-c2ccc(CCC3CC3)cc2)no1)C(=O)O [Example 76, 2-((3-(4-(2-cyclopropylethyl)phenyl)-1,2,4-oxadiazol-5-yl)methyl)acrylic acid] | 4.55 |  |  |  |  |  | 5.29 |  |  |  |  |
| C=C(Cc1nc(C2(c3ccc(OC(F)F)cc3)CC2)no1)C(=O)O [Example 78, 2-((3-(1-(4-(difluoromethoxy)phenyl)cyclopropyl)-1,2,4-oxadiazol-5-yl)methyl)acrylic acid] | 4.61 |  |  |  |  |  | < 4.00 |  |  |  |  |
| C=C(Cc1nc(CCCCCC(C)C)no1)C(=O)O [Example 68, 2-((3-(6-methylheptyl)-1,2,4-oxadiazol-5-yl)methyl)acrylic acid] | 4.71 |  |  |  |  |  | 5.24 |  |  |  |  |
